Assay results published in article PMC3974779, “Pterostilbene-Isothiocyanate Conjugate Suppresses Growth of Prostate Cancer Cells Irrespective of Androgen Receptor Status” (PLoS ONE, 2014).

Legend:
[1] = target: T1, androgen receptor in LNCaP cells (Homo sapiens, UniProt P10275, T878A); test: AR transactivation luciferase assay (pMMTV-luc); format: cell-based
T1 construct: LNCaP cells, that express endogenous AR; endogenous in cells; host or cells: LNCaP
T1 sequence (P10275 1-920 T878A): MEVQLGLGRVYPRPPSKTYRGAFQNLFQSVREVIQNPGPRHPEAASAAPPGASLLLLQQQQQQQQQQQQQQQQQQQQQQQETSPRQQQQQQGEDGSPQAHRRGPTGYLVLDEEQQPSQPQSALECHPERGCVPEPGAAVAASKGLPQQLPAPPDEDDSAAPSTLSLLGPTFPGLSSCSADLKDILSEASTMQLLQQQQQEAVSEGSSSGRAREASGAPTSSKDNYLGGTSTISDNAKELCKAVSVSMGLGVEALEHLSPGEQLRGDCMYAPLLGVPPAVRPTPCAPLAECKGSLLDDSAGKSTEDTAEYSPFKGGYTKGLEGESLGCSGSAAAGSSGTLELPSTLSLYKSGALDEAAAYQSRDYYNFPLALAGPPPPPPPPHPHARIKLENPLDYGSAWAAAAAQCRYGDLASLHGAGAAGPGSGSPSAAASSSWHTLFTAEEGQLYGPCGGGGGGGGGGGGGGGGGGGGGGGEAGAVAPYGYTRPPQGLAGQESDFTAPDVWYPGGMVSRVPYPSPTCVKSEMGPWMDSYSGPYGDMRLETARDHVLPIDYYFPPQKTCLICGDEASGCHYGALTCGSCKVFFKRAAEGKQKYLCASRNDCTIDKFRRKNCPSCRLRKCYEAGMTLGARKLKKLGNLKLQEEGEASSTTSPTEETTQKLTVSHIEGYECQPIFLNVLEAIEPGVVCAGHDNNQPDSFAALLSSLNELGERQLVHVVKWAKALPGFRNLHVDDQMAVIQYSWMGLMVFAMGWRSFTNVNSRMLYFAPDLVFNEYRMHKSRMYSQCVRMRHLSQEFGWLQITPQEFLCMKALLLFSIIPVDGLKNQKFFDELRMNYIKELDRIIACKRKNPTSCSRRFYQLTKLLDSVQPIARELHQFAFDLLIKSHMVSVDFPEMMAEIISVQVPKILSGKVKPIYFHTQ
Protocol: The LNCaP cells were grown and transiently transfected with pMMTV-neomycin-luciferase plasmid (300 ng/10^5 cells) in RPMI media supplemented with 10% FBS using polyfect transfection reagent (Qiagen, CA, USA) according to manufacturer’s instructions. Then, 24 h after transfection, the cell culture media were changed with media containing 5% charcoal-stripped FBS to reduce the contaminating steroids from the serum and incubated for an additional day before initiating the treatments. In case of PC-3 cells, they were similarly transfected, but in addition to pMMTV-neomycin-luciferase construct, they were also transfected with pSG5-hAR-puro plasmid (full length hAR in pSG5 expression vector) in the ratio of 5∶1 as indicated above. For experiments involving co-regulators, 50 ng of co-activator plasmids (25 ng each of GRIP-1 and SRC-1) along with pMMTV-neo-luc (250 ng) were transfected to LNCaP cells. To evaluate the transfection efficiency, 500 ng/105 cells of the SV40 promoter-Renilla luciferase (pRL-SV40) vector (Promega Madison, USA) were co-transfected as internal control. […] Each experimental point was performed in triplicate and varied by less than 10%. The values of luciferase for each lysates were normalized to the Renilla luciferase activity.

[2] = target: T2, AR nuclear localization in PC-3 cells (Homo sapiens, UniProt P10275); test: GFP-AR nuclear localization; format: cell-based; conditions: PC-3, 10 and 20 μM with 10 nM DHT
T2 construct: expressed in transfected cells; host or cells: LNCaP and PC-3
T2 sequence (P10275 whole entry): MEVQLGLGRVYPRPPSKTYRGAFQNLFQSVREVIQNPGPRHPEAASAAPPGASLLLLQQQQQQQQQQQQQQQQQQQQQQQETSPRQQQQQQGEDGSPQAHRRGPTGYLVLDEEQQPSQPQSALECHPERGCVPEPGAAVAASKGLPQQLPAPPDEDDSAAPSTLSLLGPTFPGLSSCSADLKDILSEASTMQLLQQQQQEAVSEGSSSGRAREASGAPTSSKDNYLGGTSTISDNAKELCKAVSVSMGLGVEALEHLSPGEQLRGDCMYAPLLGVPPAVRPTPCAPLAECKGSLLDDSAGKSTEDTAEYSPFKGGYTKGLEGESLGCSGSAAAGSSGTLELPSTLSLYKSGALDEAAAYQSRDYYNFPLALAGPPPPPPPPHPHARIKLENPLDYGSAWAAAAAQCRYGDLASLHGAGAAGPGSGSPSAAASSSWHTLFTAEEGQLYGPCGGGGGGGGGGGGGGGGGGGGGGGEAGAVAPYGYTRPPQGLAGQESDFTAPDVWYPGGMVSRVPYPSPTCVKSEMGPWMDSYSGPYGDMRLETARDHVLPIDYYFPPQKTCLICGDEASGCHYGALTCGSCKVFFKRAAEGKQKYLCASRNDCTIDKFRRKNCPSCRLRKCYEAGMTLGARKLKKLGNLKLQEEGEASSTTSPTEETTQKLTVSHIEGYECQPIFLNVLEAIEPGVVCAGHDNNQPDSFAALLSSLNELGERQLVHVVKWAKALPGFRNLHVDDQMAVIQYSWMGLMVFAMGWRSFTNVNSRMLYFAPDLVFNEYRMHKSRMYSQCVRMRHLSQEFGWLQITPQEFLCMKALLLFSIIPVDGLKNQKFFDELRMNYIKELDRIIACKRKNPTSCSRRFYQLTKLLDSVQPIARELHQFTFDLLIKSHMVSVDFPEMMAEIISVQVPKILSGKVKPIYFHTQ
Protocol: (§1) For localization studies, pEGFP-AR plasmid was transfected to LNCaP and PC-3 cells (300 ng/10^5 cells).

[3] = target: T3, AR nuclear localization in LNCaP cells (Homo sapiens, UniProt P10275); test: GFP-AR nuclear localization; format: cell-based; conditions: 10 and 20 μM with 10 nM DHT
T3 construct: expressed in transfected cells; host or cells: LNCaP and PC-3
T3 sequence (P10275 whole entry): as above
Protocol: as §1

[4] = test system: p53 protein in LNCaP cells; test: Immunoblot of p53 with p53 inhibitor; format: cell-based, human; conditions: 20 μM PFT-α, 20 and 40 μM conjugate, 24 h
Protocol: The whole-cell lysates were prepared as described previously in immunoprecipitation (IP) buffer containing 50 mM Tris-HCl (pH 8.0), 150 mM NaCl, 5 mM EDTA, and 1% Triton X-100. Protein aliquots of 500 μg were then incubated overnight at 4°C using 2 μg of antibody directed against AR. The Protein A-Cl Agarose beads were then added and further incubated for 6 h at 4°C. The immunoprecipitates were washed four times with the IP buffer and the immunocomplexes were recovered by boiling in SDS sample buffer. Finally the western blot was carried out using anti-AR, anti-SRC-1 and anti-GRIP-1 antibodies (Santa Cruz, CA, USA). For western blot analysis, the cell lysates were prepared after harvesting them in lysis buffer. About 40 μg of total protein was electrophoresed by 12% SDS-PAGE, and the western blotting was carried out using standard protocol. In brief, the analyzed proteins were transferred to nylon membranes. […]
Since there was no significant difference in the number of apoptotic cells between conjugate treated LNCaP (wild type p53) and PC-3 (p53 null) cells (p<0.05), it was intriguing to check if p53 has any role in conjugate induced apoptosis of PCa cells. […] Next we determined the effect of p53-inhibition on conjugate induced cell death by using MTT assay.

## COc1cc(/C=C/c2ccc(O)c(/C=N/NC(N)=S)c2)cc(OC)c1 [conjugate, Pterostilbene-isothiocyanate conjugate]
[1]; 1–40 μM, without DHT
  transcriptional activation by compound alone: did not induce transcriptional activation
[1]; read-out: inhibition of androgen-induced transactivation
  inhibition at 40 µM: ~73%
[2]
  DHT induced nuclear localization of AR: significantly inhibited
[3]
  DHT induced nuclear localization of AR: significantly inhibited
[4]
  expression of p53 protein: dose dependent increase
